This note sets out measurements from patent US11591329B2, “Bicyclic heterocycles as FGFR inhibitors” (Incyte Corporation, priority 2019, dated 2023).

Chain of FGFR3 enzyme (P22607 23-806): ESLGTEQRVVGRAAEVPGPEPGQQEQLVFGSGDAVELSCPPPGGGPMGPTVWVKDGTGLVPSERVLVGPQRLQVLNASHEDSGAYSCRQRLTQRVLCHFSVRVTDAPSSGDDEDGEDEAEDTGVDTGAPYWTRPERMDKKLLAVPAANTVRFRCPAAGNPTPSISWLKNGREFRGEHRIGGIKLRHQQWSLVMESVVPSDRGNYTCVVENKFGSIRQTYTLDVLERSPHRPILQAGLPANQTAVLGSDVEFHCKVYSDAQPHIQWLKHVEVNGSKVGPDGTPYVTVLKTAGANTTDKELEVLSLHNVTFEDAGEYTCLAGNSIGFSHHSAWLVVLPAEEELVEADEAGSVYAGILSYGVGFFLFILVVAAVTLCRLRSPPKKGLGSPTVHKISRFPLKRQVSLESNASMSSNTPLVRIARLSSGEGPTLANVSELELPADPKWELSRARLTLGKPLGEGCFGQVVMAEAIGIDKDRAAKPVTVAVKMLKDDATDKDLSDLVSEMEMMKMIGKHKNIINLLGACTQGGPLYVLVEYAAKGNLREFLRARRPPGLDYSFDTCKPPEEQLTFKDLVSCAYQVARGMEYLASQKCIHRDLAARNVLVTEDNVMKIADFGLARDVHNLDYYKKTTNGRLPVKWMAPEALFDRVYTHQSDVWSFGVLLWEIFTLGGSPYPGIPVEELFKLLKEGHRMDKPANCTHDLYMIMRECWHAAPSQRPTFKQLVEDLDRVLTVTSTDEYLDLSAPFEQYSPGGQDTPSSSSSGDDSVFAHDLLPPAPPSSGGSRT

This assay addresses FGFR3 enzyme (Homo sapiens (Human), UniProt P22607). The experiment in a line: FGFR Enzymatic Assay (peptide phosphorylation, FRET). The assay is classed as biochemical. The settings on record: pre-incubated for 4 hours; ATP 140 μM; 25° C. for 1 hr. As for the experimental part: The inhibitor potency of the exemplified compounds was measured in an enzyme assay that measures peptide phosphorylation using FRET measurements to detect product formation. Inhibitors were serially diluted in DMSO and a volume of 0.5 μL was transferred to the wells of a 384-well plate. For FGFR3, a 10 μL volume of FGFR3 enzyme (Millipore) diluted in assay buffer (50 mM HEPES, 10 mM MgCl2, 1 mM EGTA, 0.01% Tween-20, 5 mM DTT, pH 7.5) was added to the plate and pre-incubated for a time between 5-10 minutes and up to 4 hours. Appropriate controls (enzyme blank and enzyme with no inhibitor) were included on the plate. The assay was initiated by the addition of a 10 μL solution containing biotinylated EQEDEPEGDYFEWLE peptide substrate (SEQ ID NO: 1) and ATP (final concentrations of 500 nM and 140 μM respectively) in assay buffer to the wells. The plate was incubated at 25° C. for 1 hr. The reactions were ended with the addition of 10 μL/well of quench solution (50 mM Tris, 150 mM NaCl, 0.5 mg/mL BSA, pH 7.8; 30 mM EDTA with Perkin Elmer Lance Reagents at 3.75 nM Eu-antibody PY20 and 180 nM APC-Streptavidin). The plate was allowed to equilibrate for ˜1 hr before scanning the wells on a PheraStar plate reader (BMG Labtech).
GraphPad prism3 was used to analyze the data. The IC50 values were derived by fitting the data to the equation for a sigmoidal dose-response with a variable slope. Y=Bottom+(Top−Bottom)/(1+10^((LogIC50−X)*HillSlope)) where X is the logarithm of concentration and Y is the response.
Table 1 provides IC50 data for compounds of the invention assayed in the FGFR Enzymatic Assay after dilution in assay buffer, added to the plate and pre-incubated for 4 hours. The symbol: “+” indicates an IC50 less than 10 nM; “++” indicates an IC50 greater than or equal to 10 nM but less than 30 nM; “+++” indicates an IC50 greater than or equal to 30 nM but less than 200 nM; and “++++” indicates an IC50 greater than or equal to 200 nM.
As for `CC1C(=O)N(C)CCN1c1nc2c(-c3cnn(C)c3)n[nH]c2cc1C#N` (centres unmarked) [Example 23, 5-(2,4-Dimethyl-3-oxopiperazin-1-yl)-3-(1-methyl-1H-pyrazol-4-yl)-1H-pyrazolo[4,3-b]pyridine-6-carbonitrile], the IC50 lay within 30 to 200 nM.

Turning to `Cn1cc(-c2n[nH]c3ccc(N4CCCC(O)C4)nc23)cn1` (centres unmarked) [Example 1, 1-(3-(1-Methyl-1H-pyrazol-4-yl)-1H-pyrazolo[4,3-b]pyridin-5-yl)piperidin-3-ol], the IC50 was ≥ 200 nM.

`CN1CCN(c2ccc3[nH]nc(-c4cnn(C)c4)c3n2)C(C2CCOCC2)C1=O` (centres unmarked) [Example 10, 1-Methyl-4-(3-(1-methyl-1H-pyrazol-4-yl)-1H-pyrazolo[4,3-b]pyridin-5-yl)-3-(tetrahydro-2H-pyran-4-yl)piperazin-2-one]: the IC50 was ≥ 200 nM.

Regarding `CN1CC2CCC(C1=O)N2c1ccc2[nH]nc(-c3cnn(C)c3)c2n1` (centres unmarked) [Example 4, 3-Methyl-8-(3-(1-methyl-1H-pyrazol-4-yl)-1H-pyrazolo[4,3-b]pyridin-5-yl)-3,8-diazabicyclo[3.2.1]octan-2-one], the IC50 is < 10 nM.

As to `CC1C(=O)N(C)CCN1c1nc2c(-c3cnn(C)c3)n[nH]c2cc1-c1ccoc1` (centres unmarked) [Example 25, 4-(6-(Furan-3-yl)-3-(1-methyl-1H-pyrazol-4-yl)-1H-pyrazolo[4,3-b]pyridin-5-yl)-1,3-dimethylpiperazin-2-one], the IC50 lay in the range of 30 to 200 nM.

For the molecule `CC1C(=O)N(C)CCN1c1nc2c(-c3cnn(C)c3)n[nH]c2cc1Cc1ccccc1` (centres unmarked) [Example 26, 4-(6-Benzyl-3-(1-methyl-1H-pyrazol-4-yl)-1H-pyrazolo[4,3-b]pyridin-5-yl)-1,3-dimethylpiperazin-2-one], the IC50 was 30 to 200 nM.

`Cn1cc(-c2n[nH]c3ccc(N4CCCn5nccc54)nc23)cn1` [Example 3, 5-(6,7-Dihydropyrazolo[1,5-a]pyrimidin-4(5H)-yl)-3-(1-methyl-1H-pyrazol-4-yl)-1H-pyrazolo[4,3-b]pyridine]: the IC50 is ≥ 200 nM.

`Cc1cc2[nH]nc(-c3cnn(C)c3)c2nc1N1CCN(C)C(=O)C1C` (centres unmarked) [Example 22, 1,3-Dimethyl-4-(6-methyl-3-(1-methyl-1H-pyrazol-4-yl)-1H-pyrazolo[4,3-b]pyridin-5-yl)piperazin-2-one] had an IC50 of 30 to 200 nM.

For the molecule `CC(C)C1C(=O)N(C)CCN1c1ccc2[nH]nc(-c3ccc(N4CCN(C)CC4)c(F)c3)c2n1` (centres unmarked) [Example 18, 4-(3-(3-Fluoro-4-(4-methylpiperazin-1-yl)phenyl)-1H-pyrazolo[4,3-b]pyridin-5-yl)-3-isopropyl-1-methylpiperazin-2-one], the IC50 is < 10 nM.

`CC(C)C1C(=O)N(C)CCN1c1ccc2[nH]nc(-c3cc4cnccc4s3)c2n1` (centres unmarked) [Example 19, 3-Isopropyl-1-methyl-4-(3-(thieno[3,2-c]pyridin-2-yl)-1H-pyrazolo[4,3-b]pyridin-5-yl)piperazin-2-one]: the IC50 is < 10 nM.

On to `CN1CCN(c2ccc3[nH]nc(-c4cnn(C)c4)c3n2)C(Cc2ccncc2)C1=O` (centres unmarked) [Example 11, 1-Methyl-4-(3-(1-methyl-1H-pyrazol-4-yl)-1H-pyrazolo[4,3-b]pyridin-5-yl)-3-(pyridin-4-ylmethyl)piperazin-2-one], for which the IC50 is ≥ 200 nM.

Take `CN1CCN(c2ccc3[nH]nc(-c4cnn(C)c4)c3n2)C(C2CC2)C1=O` (centres unmarked) [Example 13, 3-Cyclopropyl-1-methyl-4-(3-(1-methyl-1H-pyrazol-4-yl)-1H-pyrazolo[4,3-b]pyridin-5-yl)piperazin-2-one]: the IC50 is < 10 nM.

Consider `CC(C)C1C(=O)N(C)CCN1c1ccc2[nH]nc(-c3cnn(C)c3)c2n1` (centres unmarked) [Example 5, 3-Isopropyl-1-methyl-4-(3-(1-methyl-1H-pyrazol-4-yl)-1H-pyrazolo[4,3-b]pyridin-5-yl)piperazin-2-one], for which the IC50 was < 10 nM.

Turning to `COc1cc2[nH]nc(-c3cnn(C)c3)c2nc1N1CCN(C)C(=O)C1C` (centres unmarked) [Example 24, 4-(6-Methoxy-3-(1-methyl-1H-pyrazol-4-yl)-1H-pyrazolo[4,3-b]pyridin-5-yl)-1,3-dimethylpiperazin-2-one], the IC50 was 30 to 200 nM.

`CC(C)C1C(=O)N(C)CCN1c1ccc2[nH]nc(-c3cn(C)nn3)c2n1` (centres unmarked) [Example 20, 3-Isopropyl-1-methyl-4-(3-(1-methyl-1H-1,2,3-triazol-4-yl)-1H-pyrazolo[4,3-b]pyridin-5-yl)piperazin-2-one] returned an IC50 of 30 to 200 nM.

Take `CC(C)C1C(=O)N(C)CCN1c1ccc2[nH]nc(-c3cnn(CCN4CCOCC4)c3)c2n1` (centres unmarked) [Example 17, 3-Isopropyl-1-methyl-4-(3-(1-(2-morpholinoethyl)-1H-pyrazol-4-yl)-1H-pyrazolo[4,3-b]pyridin-5-yl)piperazin-2-one]: the IC50 lay within 10 to 30 nM.

With `CC1CN(c2ccc3[nH]nc(-c4cnn(C)c4)c3n2)C(C)C(=O)N1C` (centres unmarked) [Example 15, 1,3,6-Trimethyl-4-(3-(1-methyl-1H-pyrazol-4-yl)-1H-pyrazolo[4,3-b]pyridin-5-yl)piperazin-2-one], the IC50 is < 10 nM.

Turning to `CCC1C(=O)N(C)CCN1c1ccc2[nH]nc(-c3cnn(C)c3)c2n1` (centres unmarked) [Example 6, 3-Ethyl-1-methyl-4-(3-(1-methyl-1H-pyrazol-4-yl)-1H-pyrazolo[4,3-b]pyridin-5-yl)piperazin-2-one], the IC50 was < 10 nM.

For the molecule `CC(C)C1C(=O)N(C)CCN1c1ccc2[nH]nc(-c3cnn(Cc4cccnc4)c3)c2n1` (centres unmarked) [Example 16, 3-Isopropyl-1-methyl-4-(3-(1-(pyridin-3-ylmethyl)-1H-pyrazol-4-yl)-1H-pyrazolo[4,3-b]pyridin-5-yl)piperazin-2-one], the IC50 was < 10 nM.

Molecule `CC1C(=O)N(C)CCN1c1nc2c(-c3cnn(C)c3)n[nH]c2cc1Cl` (centres unmarked) [Example 21, 4-(6-Chloro-3-(1-methyl-1H-pyrazol-4-yl)-1H-pyrazolo[4,3-b]pyridin-5-yl)-1,3-dimethylpiperazin-2-one] gave an IC50 of 10 to 30 nM.

`CN1CCN(c2ccc3[nH]nc(-c4cnn(C)c4)c3n2)C(Cc2ccccc2)C1=O` (centres unmarked) [Example 8, 3-Benzyl-1-methyl-4-(3-(1-methyl-1H-pyrazol-4-yl)-1H-pyrazolo[4,3-b]pyridin-5-yl)piperazin-2-one] showed an IC50 of 10 to 30 nM.

Molecule `CN1CCN(c2ccc3[nH]nc(-c4cnn(C)c4)c3n2)C(CC2CC2)C1=O` (centres unmarked) [Example 9, 3-(Cyclopropylmethyl)-1-methyl-4-(3-(1-methyl-1H-pyrazol-4-yl)-1H-pyrazolo[4,3-b]pyridin-5-yl)piperazin-2-one] returned a half-maximal inhibitory concentration (IC50) of 10 to 30 nM.

For the molecule `Cn1cc(-c2n[nH]c3ccc(N4CCn5cnc(C(F)(F)F)c5C4)nc23)cn1` [Example 2, 3-(1-Methyl-1H-pyrazol-4-yl)-5-(1-(trifluoromethyl)-5,6-dihydroimidazo[1,5-a]pyrazin-7(8H)-yl)-1H-pyrazolo[4,3-b]pyridine], the IC50 is < 10 nM.

For `CC(c1ccccc1)C1C(=O)N(C)CCN1c1ccc2[nH]nc(-c3cnn(C)c3)c2n1` (centres unmarked) [Example 12, 1-Methyl-4-(3-(1-methyl-1H-pyrazol-4-yl)-1H-pyrazolo[4,3-b]pyridin-5-yl)-3-(1-phenylethyl)piperazin-2-one], the IC50 was < 10 nM.

`CCC1(CC)C(=O)N(C)CCN1c1ccc2[nH]nc(-c3cnn(C)c3)c2n1` [Example 7, 3,3-Diethyl-1-methyl-4-(3-(1-methyl-1H-pyrazol-4-yl)-1H-pyrazolo[4,3-b]pyridin-5-yl)piperazin-2-one] showed an IC50 of 10 to 30 nM.

In turn, `CC1C(=O)N(C2CC2)CCN1c1ccc2[nH]nc(-c3cnn(C)c3)c2n1` (centres unmarked) [Example 14, 1-Cyclopropyl-3-methyl-4-(3-(1-methyl-1H-pyrazol-4-yl)-1H-pyrazolo[4,3-b]pyridin-5-yl)piperazin-2-one] gave an IC50 of 10 to 30 nM.
